Data reported in patent publication US20040044037A1, “Amidino-urea serotonin receptor ligands and compositions, their pharmaceutical uses, and methods for their snythesis” (priority 2003, published 2004).
Like-named read-outs stand apart in the source and are kept apart here.

Tests used:
human 5-HT1a receptors = biological target: T1, human 5-HT1a receptors (Homo sapiens, UniProt P08908); assay: Competition radioligand binding, h5-HT1a
T1 construct: expressed in transfected cells; host or cells: CHO K1 cells
T1 sequence (P08908 1-422): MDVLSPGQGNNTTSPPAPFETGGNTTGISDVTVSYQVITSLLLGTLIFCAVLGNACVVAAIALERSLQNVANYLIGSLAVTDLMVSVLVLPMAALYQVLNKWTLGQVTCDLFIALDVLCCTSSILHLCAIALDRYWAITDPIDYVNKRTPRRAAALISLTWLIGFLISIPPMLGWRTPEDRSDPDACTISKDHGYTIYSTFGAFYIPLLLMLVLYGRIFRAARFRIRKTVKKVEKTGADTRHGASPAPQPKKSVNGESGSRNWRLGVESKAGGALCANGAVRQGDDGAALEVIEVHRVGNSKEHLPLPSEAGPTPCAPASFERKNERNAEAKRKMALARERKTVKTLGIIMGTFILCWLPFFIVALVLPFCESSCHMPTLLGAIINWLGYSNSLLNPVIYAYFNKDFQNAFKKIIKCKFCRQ
How it was run: (§1)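 Human 5-HT1a and 5-HT2a receptors were expressed in CHO K1 cell membranes. Competition binding was stopped by filtration onto PEI-soaked GF/C filters and counted by liquid scintillation. IC50 values and Hill slopes came from nonlinear regression, and Ki was calculated by Cheng–Prusoff.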

[1] = biological target: T2, human 5-HT7B (h5-HT7b) receptors (Homo sapiens, UniProt P34969); assay: Competition radioligand binding, h5-HT7b
T2 construct: expressed in transfected cells
How it was run: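 Membranes from HEK 293 cells stably expressing human 5-HT7b incubated with ~0.2 nM [3H]5-CT and varying compound 2 h at 37 °C in HEPES buffer pH 7.4 with pargyline. Nonspecific binding with 1 μM 5-HT; filtration, scintillation counting; IC50 by nonlinear regression converted to Ki via Cheng–Prusoff.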

[2] = biological target: T3, human 5-HT6 (h5-HT6) receptors (Homo sapiens, UniProt P50406); assay: Competition radioligand binding, h5-HT6
T3 construct: purchased Receptor Biology, Inc. (Beltsville, Md.); host or cells: HEK-293 cells

[3] = biological target: T4, human D2S dopamine (hD2S-DA) receptors (Homo sapiens, UniProt P14416); assay: Competition radioligand binding, hD2S dopamine
T4 construct: purchased Receptor Biology, Inc. (Beltsville, Md.); host or cells: A9 L cells

human 5HT2a receptors = biological target: T5, human 5HT2a receptors (Homo sapiens, UniProt P28223); assay: Competition radioligand binding, 5-HT2A
T5 construct: expressed in transfected cells; host or cells: CHO K1 cells
How it was run: as §1

[4] = [3H]5-CT, membranes of CHO K1 cells, read-out: Ki 5-HT1A
[5] = [3H]5-CT, membranes of HEK 293 cells, read-out: Ki 5-HT7
[6] = [3H]LSD, membranes of HEK-293 cells, read-out: Ki 5-HT6
[7] = [3H]Spiperone, membranes of A9 L cells, read-out: Ki D2
[8] = [3H]Ketanserin, membranes of CHO K1 cells, read-out: Ki 5-HT2A

T2 sequence (P34969 1-432 limits assumed): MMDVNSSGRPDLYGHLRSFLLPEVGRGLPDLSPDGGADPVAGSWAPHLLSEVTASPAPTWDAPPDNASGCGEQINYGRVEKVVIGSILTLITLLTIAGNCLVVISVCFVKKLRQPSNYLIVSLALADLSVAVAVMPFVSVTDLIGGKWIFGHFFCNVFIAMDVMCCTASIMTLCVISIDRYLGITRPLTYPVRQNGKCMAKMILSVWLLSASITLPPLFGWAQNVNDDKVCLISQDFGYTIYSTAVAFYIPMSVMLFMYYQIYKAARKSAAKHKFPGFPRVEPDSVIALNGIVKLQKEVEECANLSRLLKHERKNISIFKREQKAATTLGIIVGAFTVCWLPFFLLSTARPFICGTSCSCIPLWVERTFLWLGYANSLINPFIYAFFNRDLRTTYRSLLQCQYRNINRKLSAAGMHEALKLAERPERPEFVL
T5 sequence (P28223 whole entry): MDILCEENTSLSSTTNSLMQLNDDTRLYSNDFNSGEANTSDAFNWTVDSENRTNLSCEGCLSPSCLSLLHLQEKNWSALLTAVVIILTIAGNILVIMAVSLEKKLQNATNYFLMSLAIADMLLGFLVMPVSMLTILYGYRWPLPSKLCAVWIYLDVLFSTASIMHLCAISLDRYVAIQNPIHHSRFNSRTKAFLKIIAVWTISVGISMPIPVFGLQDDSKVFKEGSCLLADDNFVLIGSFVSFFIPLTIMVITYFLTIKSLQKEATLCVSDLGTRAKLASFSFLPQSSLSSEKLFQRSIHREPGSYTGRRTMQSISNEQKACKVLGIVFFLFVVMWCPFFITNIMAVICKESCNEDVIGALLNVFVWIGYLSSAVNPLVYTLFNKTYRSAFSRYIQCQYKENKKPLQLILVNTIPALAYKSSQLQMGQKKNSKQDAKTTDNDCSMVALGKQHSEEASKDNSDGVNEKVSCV
T4 sequence (P14416 1-414 isoform P14416-2): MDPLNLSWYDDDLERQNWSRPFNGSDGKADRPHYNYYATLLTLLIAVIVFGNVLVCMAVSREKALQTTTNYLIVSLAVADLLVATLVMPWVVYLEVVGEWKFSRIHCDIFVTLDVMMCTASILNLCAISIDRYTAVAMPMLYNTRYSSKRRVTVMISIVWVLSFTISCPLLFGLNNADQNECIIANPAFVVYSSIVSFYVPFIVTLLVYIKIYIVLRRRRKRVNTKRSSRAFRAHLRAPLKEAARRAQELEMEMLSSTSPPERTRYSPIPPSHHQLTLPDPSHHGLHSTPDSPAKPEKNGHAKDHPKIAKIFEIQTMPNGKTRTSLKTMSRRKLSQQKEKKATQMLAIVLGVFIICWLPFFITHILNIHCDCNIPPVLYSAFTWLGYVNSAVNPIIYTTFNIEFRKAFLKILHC
T3 sequence (P50406 whole entry): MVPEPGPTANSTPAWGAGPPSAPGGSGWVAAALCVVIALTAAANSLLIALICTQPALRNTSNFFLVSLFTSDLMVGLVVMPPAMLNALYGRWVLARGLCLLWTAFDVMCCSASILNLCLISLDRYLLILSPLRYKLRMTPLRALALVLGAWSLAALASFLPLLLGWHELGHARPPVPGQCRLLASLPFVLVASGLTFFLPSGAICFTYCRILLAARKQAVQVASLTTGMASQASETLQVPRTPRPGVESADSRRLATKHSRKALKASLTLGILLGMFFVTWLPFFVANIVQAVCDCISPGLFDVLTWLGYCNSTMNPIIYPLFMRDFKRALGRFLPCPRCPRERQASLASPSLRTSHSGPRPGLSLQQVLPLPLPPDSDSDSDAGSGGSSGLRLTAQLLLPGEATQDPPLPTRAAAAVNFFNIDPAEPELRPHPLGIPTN

SMILES	Ki (human 5-HT1a receptors; [4]) [nM]	Ki [1, 5] [nM]	Ki [2, 6] [nM]	Ki [3, 7] [nM]	Ki (human 5HT2a receptors; [8]) [nM]	Ki (human 5-HT1a receptors) [nM]	Ki [1] [nM]	Ki [2] [nM]	Ki [3] [nM]	Ki (human 5HT2a receptors) [nM]
N=C(NCc1cccc2ccccc12)NC(=O)NCC1CCN(Cc2cccc(Cl)c2)CC1 [Example 73, 1-(3-Chlorobenzyl)-4-({[({imino[(1-naphthylmethyl)amino]methyl}amino)carbonyl]amino}methyl)piperidine]	390	21	750	830	8.7	–	–	–	–	–
N=C(NCc1cccc2ccccc12)NC(=O)NCC1CCN(Cc2cc(F)cc(F)c2)CC1 [Example 74, 1-(3,5-Difluorobenzyl)-4-({[({imino[(1-naphthylmethyl)amino]methyl}amino)carbonyl]amino}methyl)piperidine]	300	28	1910	1340	4.1	–	–	–	–	–
N=C(NCc1cccc2ccccc12)NC(=O)NCC1CCN(Cc2ccccc2)CC1 [Example 75, 1-Benzyl-4-({[({imino[(1-naphthylmethyl)amino]methyl}amino)carbonyl]amino}methyl)piperidine]	340	29	4010	2300	4.9	–	–	–	–	–
Cc1ccc(CN2CCC(CNC(=O)NC(=N)NCc3cccc4ccccc34)CC2)cc1 [Example 76, 4-({[({Imino[(1-naphthylmethyl)amino]methyl}amino)carbonyl]amino}methyl)-1-(4-methylbenzyl)piperidine]	550	46	3380	1900	6.8	–	–	–	–	–
N=C(NCc1cccc2ccccc12)NC(=O)NCC1CCN(Cc2ccc(F)cc2)CC1 [Example 77, 1-(4-Fluorobenzyl)-4-({[({imino[(1-naphthylmethyl)amino]methyl}amino)carbonyl]amino}methyl)piperidine]	1090	19	3350	1270	9.5	–	–	–	–	–
CCOc1ccccc1CNC(=N)NC(=O)N1CCC(Nc2ccccc2)CC1 [Example 78, N-[(4-Anilino-1-piperidinyl)carbonyl]-N′-(2-ethoxybenzyl)guanidine]	–	–	–	–	–	> 4000	34	6870	> 2500	170
N=C(NCc1ccccc1-c1ccccc1)NC(=O)N1CCC(Nc2ccccc2)CC1 [Example 79, N-[(4-Anilino-1-piperidinyl)carbonyl]-N′-([1,1′-biphenyl]-2-ylmethyl)guanidine]	–	–	–	–	–	> 4000	99	2400	> 2500	910
N=C(NCc1c(Cl)cccc1Oc1ccccc1)NC(=O)N1CCC(Nc2ccccc2)CC1 [Example 80, N-[(4-Anilino-1-piperidinyl)carbonyl]-N′-(2-chloro-6-phenoxybenzyl)guanidine]	–	–	–	–	–	3650	41	2300	> 2500	930
COc1cccc(OC)c1CNC(=N)NC(=O)N1CCC(Nc2ccccc2)CC1 [Example 81, N-[(4-Anilino-1-piperidinyl)carbonyl]-N′-(2,6-dimethoxybenzyl)guanidine]	–	–	–	–	–	2940	66	4700	1920	180
CNC(=O)NC(=N)NCc1c(OC)cccc1OC [Example 85, 2-{[(Imino{[(methylamino)carbonyl]amino}methyl)amino]methyl}-1,3-dimethoxybenzene]	310	12	6340	> 2500	280	–	–	–	–	–
CNC(=O)NC(=N)NCc1ccccc1Oc1ccccc1Cl [Example 86, 1-(2-Chlorophenoxy)-2-{[(imino{[(methylamino)carbonyl]amino}methyl)amino]methyl}benzene]	920	6.3	580	> 2500	290	–	–	–	–	–
CNC(=O)NC(=N)NCc1cccc(-c2ccccc2)c1 [Example 87, 3-{[(Imino{[(methylamino)carbonyl]amino}methyl)amino]methyl}-1,1′-biphenyl]	> 400	80	3360	> 2500	1020	–	–	–	–	–
